Test results from ChEMBL document CHEMBL1201862, “PubChem BioAssay data set” (2004).
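Exposure lasted 48 hours, with cells grown in 96-well plates and compounds tested at five concentrations. The concentration for 50% growth inhibition is given as GI50.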 The source made the active and inactive calls. Rule as the data show it: active = GI50 up to about 1.1 µM and inactive = higher.

What was measured:
Assay in all cases: DTP human tumour cell line panel, 48 h
[1] = test system: NCI/ADR-RES
[2] = test system: DLD-1
[3] = test system: CAKI-1
[4] = test system: NCI-H522
[5] = test system: SF-539
[6] = test system: HOP-62
[7] = test system: OVCAR-4
[8] = test system: SK-OV-3
[9] = test system: RXF 393
[10] = test system: LOX IMVI
[11] = test system: KM-20L2
[12] = test system: SNB-75
[13] = test system: XF498
[14] = test system: M14
[15] = test system: MDA-MB-435
[16] = test system: Hs-578T
[17] = test system: BT-549
[18] = test system: PC-3
[19] = test system: TK-10
[20] = test system: DU-145

| Compound | GI50 [1] | GI50 [2] | GI50 [3] | GI50 [4] | GI50 [5] | GI50 [6] | GI50 [7] | GI50 [8] | GI50 [9] | GI50 [10] | GI50 [11] | GI50 [12] | GI50 [13] | GI50 [14] | GI50 [15] | GI50 [16] | GI50 [17] | GI50 [18] | GI50 [19] | GI50 [20] |
| --- | --- | --- | --- | --- | --- | --- | --- | --- | --- | --- | --- | --- | --- | --- | --- | --- | --- | --- | --- | --- |
| C=C/C(C)=C/[C@H](C)C(=O)C[C@H](O)CC1CC(=O)NC(=O)C1 | 57.4 µM (inactive) | 44.2 µM (inactive) | 13.6 µM (inactive) | 21.2 µM (inactive) | 35.1 µM (inactive) | 19.2 µM (inactive) | 19.6 µM (inactive) | > 41.9 µM (inactive) | 38.5 µM (inactive) | 43.1 µM (inactive) | 19.2 µM (inactive) | > 55.8 µM (inactive) | 2.86 µM (inactive) | – | – | – | – | – | – | – |
| CN(C(=O)c1ccc(OCCCC(=O)O)c(Cl)c1Cl)C1CCCC1 | > 100 µM (inactive) | > 100 µM (inactive) | > 28.6 µM (inactive) | 42.6 µM (inactive) | > 100 µM (inactive) | > 100 µM (inactive) | > 100 µM (inactive) | > 100 µM (inactive) | > 71.1 µM (inactive) | > 100 µM (inactive) | > 100 µM (inactive) | 80.4 µM (inactive) | 28.4 µM (inactive) | – | – | – | – | – | – | – |
| COc1cc(C2c3cc4c(cc3[C@@H](Nc3cccc(C(C)=O)c3)C3COC(=O)[C@H]23)OCO4)cc(OC)c1O (some centres not stated) | 0.383 µM (active) | 1.37 µM (inactive) | 0.108 µM (active) | 1.39 µM (inactive) | 0.243 µM (active) | 0.122 µM (active) | 6.17 µM (inactive) | 0.71 µM (active) | 0.762 µM (active) | 0.39 µM (active) | 1.66 µM (inactive) | 0.838 µM (active) | 0.573 µM (active) | – | – | – | – | – | – | – |
| COc1ccc2cc1Oc1ccc(cc1)C[C@H]1c3cc(c(OC)cc3CCN1C)Oc1c(O)c(OC)cc3c1[C@H](C2)N(C)CC3 [FANGCHINOLINE] | 29.4 µM (inactive) | 23.4 µM (inactive) | 3.54 µM (inactive) | 27.5 µM (inactive) | 20.3 µM (inactive) | 37.6 µM (inactive) | 26.5 µM (inactive) | 28.4 µM (inactive) | 16.5 µM (inactive) | 5.3 µM (inactive) | 1.7 µM (inactive) | 28.7 µM (inactive) | 27.4 µM (inactive) | – | – | – | – | – | – | – |
| N/C(=N\O)N/N=C\c1cc([N+](=O)[O-])cc([N+](=O)[O-])c1O | > 26 µM (inactive) | > 37.2 µM (inactive) | 5.66 µM (inactive) | 12.5 µM (inactive) | 18.4 µM (inactive) | 4.22 µM (inactive) | > 96.2 µM (inactive) | 25.5 µM (inactive) | > 100 µM (inactive) | 2.99 µM (inactive) | 24.9 µM (inactive) | – | 40.8 µM (inactive) | – | – | – | – | – | – | – |
| COc1cc(C2c3cc4c(cc3[C@@H](Nc3ccc(N5CCOCC5)cc3)C3COC(=O)[C@H]23)OCO4)cc(OC)c1O (some centres not stated) | 3.96 µM (inactive) | 1.55 µM (inactive) | 0.4 µM (active) | 1.41 µM (inactive) | 0.571 µM (active) | 0.274 µM (active) | 9.84 µM (inactive) | 0.738 µM (active) | 2.3 µM (inactive) | 1.01 µM (active) | 1.57 µM (inactive) | 5.19 µM (inactive) | 0.392 µM (active) | – | – | – | – | – | – | – |
| O=c1cnn(C2OC(CO)C(O)C2O)c(=S)[nH]1 (configuration not stated) | > 79.3 µM (inactive) | 8.47 µM (inactive) | 2.55 µM (inactive) | 16.4 µM (inactive) | 66.5 µM (inactive) | > 63.7 µM (inactive) | > 100 µM (inactive) | > 100 µM (inactive) | > 100 µM (inactive) | 1.24 µM (inactive) | 28.9 µM (inactive) | > 100 µM (inactive) | > 100 µM (inactive) | > 100 µM (inactive) | > 100 µM (inactive) | > 100 µM (inactive) | > 100 µM (inactive) | 8.73 µM (inactive) | > 100 µM (inactive) | 9.4 µM (inactive) |
| CCOC(=O)c1ccc(N[C@@H]2c3cc4c(cc3C(c3cc(OC)c(O)c(OC)c3)[C@H]3C(=O)OCC32)OCO4)cc1 (some centres not stated) | 1.42 µM (inactive) | 1.44 µM (inactive) | 0.251 µM (active) | – | 0.421 µM (active) | – | 4.21 µM (inactive) | 0.955 µM (active) | – | – | 0.713 µM (active) | 1.21 µM (inactive) | 0.726 µM (active) | 0.679 µM (active) | 3.07 µM (inactive) | – | 1.64 µM (inactive) | 1.61 µM (inactive) | – | 0.258 µM (active) |
| C/C([O-])=C(/c1nc(-c2ccc([N+](=O)[O-])o2)no1)[n+]1cc(C)ccc1C | 35 µM (inactive) | 11.5 µM (inactive) | 14.3 µM (inactive) | 3.57 µM (inactive) | 4.99 µM (inactive) | 22.7 µM (inactive) | 25.1 µM (inactive) | 35.6 µM (inactive) | 18.7 µM (inactive) | 5.94 µM (inactive) | 12.6 µM (inactive) | 17.8 µM (inactive) | 7.48 µM (inactive) | – | – | – | – | – | – | – |
| Cc1c(N=NN(C)C)cc[n+]([O-])c1C | > 100 µM (inactive) | > 100 µM (inactive) | > 100 µM (inactive) | > 100 µM (inactive) | > 100 µM (inactive) | > 100 µM (inactive) | > 100 µM (inactive) | > 100 µM (inactive) | > 100 µM (inactive) | > 100 µM (inactive) | > 100 µM (inactive) | > 49.7 µM (inactive) | > 100 µM (inactive) | – | – | – | – | – | – | – |
